Laboratory results reported in patent publication US20160158200A1, “Combinations of Hepatitis C Virus Inhibitors” (priority 2013, published 2016).

Test system: HCV genotype-1a variant with glutamine 30 changed to glutamate in the NS5A protein
Type: cell-based
Settings: test compound titrated with BMS-790052 fixed at 200 nM; genotype 1a Q30E replicon
Procedure, shortened: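 Synergy was assessed by combining several fixed amounts of an NS5A-targeting compound with a titration of the second compound of interest.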

Row | Compound | Fold-Synergistic 1a (Q30E)
1 | Cc1ccccc1C(C(=O)NC(c1nc(-c2ccc(-c3ccc(-c4c[nH]c(C(NC(=O)C(c5ccccc5C)C(C)C)C(C)(C)C)n4)cc3)cc2)c[nH]1)C(C)(C)C)C(C)C (mixture of isomers) [Compound S-258] | >100 fold
2 | CC(C)(C(=O)N[C@H](c1nc(-c2ccc(-c3ccc(-c4cnc([C@@H](NC(=O)C(C)(C)C5CCCO5)C(C)(C)C)[nH]4)cc3)cc2)c[nH]1)C(C)(C)C)C1CCCO1 (single isomer, unassigned) [Compound B-171] | >100 fold
3 | CC(C)(C)[C@H](NC(=O)c1cccc(B(O)O)c1)c1nc(-c2ccc(-c3ccc(-c4cnc([C@@H](NC(=O)c5cccc(B(O)O)c5)C(C)(C)C)[nH]4)cc3)cc2)c[nH]1 [Compound B-178] | >10 fold
4 | CC(C)[C@H](NC(=O)C1(C(C)O)CC1)c1ncc(-c2ccc(-c3ccc(-c4cnc([C@@H](NC(=O)C5(C(C)O)CC5)C(C)C)n4C)cc3)cc2)n1C (single isomer, unassigned) [Compound B-204] | >10 fold
5 | COc1cnc(C(=O)N2CCC[C@H]2c2ncc(-c3ccc(-c4ccc(-c5cnc([C@@H]6CCCN6C(=O)c6ncc(OC)c7ccccc67)[nH]5)cc4)cc3)[nH]2)c2ccccc12 [Compound S-199] | >100 fold
6 | COc1ccc(C(=O)N[C@H](c2ncc(-c3ccc(-c4ccc(-c5cnc([C@@H](NC(=O)c6ccc(OC)c(OC)c6)C(C)C)[nH]5)cc4)cc3)[nH]2)C(C)C)cc1OC [Compound S-78] | >100 fold
7 | COC(=O)N(C)C1(C(=O)N[C@H](c2ncc(C#Cc3ccc4cc(-c5cnc([C@@H](NC(=O)C6(N(C)C(=O)OC)CC6)C(C)(C)C)[nH]5)ccc4c3)[nH]2)C(C)(C)C)CC1 [Compound B5] | >100 fold
8 | CC(C)C(c1ncc(-c2ccc(-c3ccc(-c4cnc(C(C(C)C)N5CCCCC5=O)[nH]4)cc3)cc2)[nH]1)N1CCCCC1=O (stereo not shown) [Compound P-52] | >10 fold
9 | CC(C)(C)[C@H](NC(=O)CC1CC(F)(F)C1)c1nc(-c2ccc(-c3ccc(-c4c[nH]c([C@@H](NC(=O)CC5CC(F)(F)C5)C(C)(C)C)n4)cc3)cc2)c[nH]1 [Compound N-120] | >100 fold
10 | CC(C)(C)[C@H](NC(=O)c1ccccc1F)c1nc(-c2ccc(-c3ccc(-c4c[nH]c([C@@H](NC(=O)c5ccccc5F)C(C)(C)C)n4)c(F)c3)cc2)c[nH]1.O=C(O)C(F)(F)F [Compound N-95] | >100 fold
11 | COCC(NC(=O)C(=O)N1CCC(F)(F)CC1)c1nc(-c2ccc(-c3ccc(-c4c[nH]c(C(COC)NC(=O)C(=O)N5CCC(F)(F)CC5)n4)cc3)cc2)c[nH]1 [Compound L-103] | >10 fold
12 | CC(C)(C)C(NC(=O)C1COCCN1CC(F)(F)F)c1nc(-c2ccc(-c3ccc(-c4c[nH]c(C(NC(=O)C5COCCN5CC(F)(F)F)C(C)(C)C)n4)cc3)cc2)c[nH]1 [Compound L-68] | >100 fold
13 | CC(C)[C@H](NC(=O)C(=O)C1(C)CCC(F)(F)CC1)c1ncc(-c2ccc(-c3ccc(-c4cnc([C@@H](NC(=O)C(=O)C5(C)CCC(F)(F)CC5)C(C)C)[nH]4)cc3)cc2)[nH]1 [Compound P-112] | >100 fold
14 | COCC1(C(=O)N[C@H](c2ncc(-c3ccc(-c4ccc(-c5cnc([C@@H](NC(=O)C6(COC)CCC6)C(C)C)[nH]5)cc4)cc3)[nH]2)C(C)C)CCC1 [Compound P-74] | >100 fold
15 | Cc1cccc(CC(=O)N[C@H](c2ncc(-c3ccc(-c4ccc(-c5cnc([C@@H](NC(=O)Cc6cccc(C)c6)C(C)C)[nH]5)cc4)cc3)[nH]2)C(C)C)c1 [Compound S-41] | >10 fold
16 | CC(C)[C@H](NC(=O)C1CCC(F)(F)CC1)c1ncc(-c2ccc3c(c2)Cc2cc(-c4cnc([C@@H](NC(=O)C5CCC(F)(F)CC5)C(C)C)[nH]4)ccc2-3)[nH]1.O=C(O)C(F)(F)F [Compound N-70] | >100 fold
